Values of other authors as cited in US20130089529A1, “AGENT FOR OSTEOGENESIS USING SUBSTANCE-P AND PREPARATION PROCESS THEREOF” (UNIVERSITY-INDUSTRY COOPERATION GROUP OF KYUNGHEE UNIVERSITY, priority 2010, published 2013).

Tests used:
[1] = tested on: CD29+ MSCs; conditions: mice without wound, intravenous injection of Substance-P, versus non-injected mice; previous study KR 10-2006-0037176
[2] = tested on: MSCs; conditions: in vitro 3-D collagen gel; by inducing matrix-degrading enzymes and inhibiting their inhibitors; previous study KR 10-2006-0037176

Substance-P
CD29+ MSCs mobilized into peripheral blood, relative to non-injected mice [1]: approximately 15 times | Migration of MSCs in 3-D collagen gel [2]: stimulated migration of MSCs
